Test system: not listed separately
Test: Solubility test
Assay type: physicochemical
Settings: kinetic from dmso stock; artificial intestinal juice pH 6.8, 1% DMSO, 25° C. for 16 hours
Description: The solubility of a compound was determined under a condition in which 1% DMSO was added. 10 mmol/L compound solution was prepared using DMSO, and then 6 μL of the compound solution was added to 594 μL of artificial intestinal juice in pH 6.8 (to 250 mL of 0.2 mol/L potassium dihydrogen phosphate reagent solution was added 118 mL of 0.2 mol/L NaOH reagent solution and water to provide a final volume of 1000 mL). After standing at 25° C. for 16 hours, the mixed solution was filtered with suction. The filtrate was diluted twice with methanol/water (1/1), and then a concentration in the filtration was measured with HPLC or LC/MS/MS by the absolute calibration method.

Row | Compound | solubility at 16 h
1 | CNC(=O)Nc1cc2n(n1)CCN2c1cccc(OC)c1 [Compound I-61] | > 50 µM
2 | CC(=O)Nc1cc2n(n1)CCN2c1ccc2c(c1)CCCN2.Cl.Cl [Compound I-319] | > 50 µM

Biological target: PI-3 kinase γ (Homo sapiens, UniProt P48736)
Sequence (P48736 whole entry): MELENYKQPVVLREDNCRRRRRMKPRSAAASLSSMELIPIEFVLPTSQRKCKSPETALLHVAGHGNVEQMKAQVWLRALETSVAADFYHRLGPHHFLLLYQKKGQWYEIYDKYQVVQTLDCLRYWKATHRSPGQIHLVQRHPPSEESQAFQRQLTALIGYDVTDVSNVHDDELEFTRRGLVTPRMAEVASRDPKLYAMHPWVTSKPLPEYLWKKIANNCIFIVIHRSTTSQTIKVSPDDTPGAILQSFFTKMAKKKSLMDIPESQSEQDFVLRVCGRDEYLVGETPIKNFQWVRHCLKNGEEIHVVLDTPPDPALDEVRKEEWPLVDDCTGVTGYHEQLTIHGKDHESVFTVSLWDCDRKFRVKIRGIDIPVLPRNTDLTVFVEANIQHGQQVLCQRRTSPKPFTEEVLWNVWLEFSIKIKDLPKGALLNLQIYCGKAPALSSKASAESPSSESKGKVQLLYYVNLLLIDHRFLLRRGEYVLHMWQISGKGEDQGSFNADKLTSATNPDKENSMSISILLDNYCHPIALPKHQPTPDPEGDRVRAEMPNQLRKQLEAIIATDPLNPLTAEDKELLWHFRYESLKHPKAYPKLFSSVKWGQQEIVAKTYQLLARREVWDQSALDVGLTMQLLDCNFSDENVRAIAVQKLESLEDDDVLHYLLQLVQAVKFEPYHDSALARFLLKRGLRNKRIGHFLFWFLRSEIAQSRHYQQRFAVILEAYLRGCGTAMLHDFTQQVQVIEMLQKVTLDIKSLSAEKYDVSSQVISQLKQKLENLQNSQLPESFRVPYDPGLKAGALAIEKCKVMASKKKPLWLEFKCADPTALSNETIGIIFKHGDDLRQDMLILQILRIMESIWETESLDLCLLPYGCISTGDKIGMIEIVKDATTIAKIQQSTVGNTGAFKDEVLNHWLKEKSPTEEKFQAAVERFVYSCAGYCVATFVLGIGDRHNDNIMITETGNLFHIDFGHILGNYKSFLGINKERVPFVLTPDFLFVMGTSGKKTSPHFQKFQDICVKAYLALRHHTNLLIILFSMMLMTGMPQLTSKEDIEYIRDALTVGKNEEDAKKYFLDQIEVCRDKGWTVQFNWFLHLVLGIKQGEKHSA
Test: PI3Kγ inhibitory activity, PI3-kinase HTRF assay (inhibition ratio)
Assay type: biochemical
Settings: 0.5 h; PI3Kγ, compound at 50 μM
Procedure, shortened: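 PI3Kγ preincubated 10 min with compound and PIP2 substrate (MgCl2, DTT), then ATP added for 30 min at room temperature. PIP3 detected by HTRF (665/620 nm ratio) after 18 h. Inhibition ratio at 50 or 10 μmol/L, normalised to no-compound and no-enzyme controls.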

Row | Compound | inhibition at 50 µM
3 | CNC(=O)Nc1cc2n(n1)CCN2c1cccc(OC)c1 [Compound I-61] | ≥ 95%

Same assay, conditions: 0.5 h; compound at 10 μmol/L

Row | Compound | inhibition at 10 µM
4 | CC(=O)Nc1cc2n(n1)CCN2c1ccc2c(c1)CCCN2.Cl.Cl [Compound I-319] | ≥ 95%
5 | CN1CCc2cc(N3CCn4nc(NC(=O)N5CCCC5)cc43)ccc2C1=O [Compound I-453] | 76%
6 | COc1cc(N2CCc3nc(NC(=O)c4ccc(C)o4)sc3C2)nc(OC)n1 [Compound I-456] | 87%
7 | CCOc1ccc(C(=O)Nc2nc3c(s2)CN(c2cc(OC)nc(OC)n2)CC3)o1 [Compound I-457] | 88%
8 | COc1cc(N2CCc3nc(NC(=O)c4ccc(C)s4)sc3C2)nc(OC)n1 [Compound I-458] | 92%
9 | COc1cc(N2CCc3nc(NC(=O)c4ccsc4)sc3C2)nc(OC)n1 [Compound I-459] | 92%
10 | CN1CCc2cc(N3CCn4nc(NC(=O)c5cccc(O)c5)cc43)ccc2C1=O [Compound I-461] | 95%
11 | COc1cccc(C(=O)Nc2cc3n(n2)CCN3c2ccc3c(c2)CCN(C)C3=O)c1 [Compound I-462] | ≥ 95%
12 | CC(C)Oc1cccc(C(=O)Nc2cc3n(n2)CCN3c2ccc3c(c2)CCN(C)C3=O)c1 [Compound I-463] | ≥ 95%
13 | CN1CCc2cc(N3CCn4nc(NC(=O)c5cccc(F)c5)cc43)ccc2C1=O [Compound I-464] | ≥ 95%
14 | CN1CCc2cc(N3CCn4nc(NC(=O)c5cccc(C(=O)OC(C)(C)C)c5)cc43)ccc2C1=O [Compound I-465] | ≥ 95%
15 | CN1CCc2cc(N3CCn4nc(NC(=O)c5cccc(NC(=O)OC(C)(C)C)c5)cc43)ccc2C1=O [Compound I-466] | 83%
16 | COCn1ccc(C(=O)Nc2cc3n(n2)CCN3c2ccc3c(c2)CCN(C)C3=O)n1 [Compound I-467] | ≥ 95%
17 | CC(Oc1cccc(C(=O)Nc2cc3n(n2)CCN3c2ccc3c(c2)CCN(C)C3=O)c1)C(N)=O (centres unmarked) [Compound I-468] | ≥ 95%
18 | CN1CCc2cc(N3CCn4nc(NC(=O)c5cccc(OC(C)(C)C(=O)OC(C)(C)C)c5)cc43)ccc2C1=O [Compound I-469] | 85%
19 | CC(C)NC(=O)Nc1cccc(C(=O)Nc2cc3n(n2)CCN3c2ccc3c(c2)CCN(C)C3=O)c1 [Compound I-470] | 79%
20 | CC(=O)Nc1nc2ccn(-c3cccc(Cl)c3)c2s1 [Compound I-471] | 91%
21 | CN1CCc2cc(N3CCn4nc(NC(=O)c5cccc(C(=O)O)c5)cc43)ccc2C1=O [Compound I-472] | ≥ 95%
22 | CN1CCc2cc(N3CCn4nc(NC(=O)c5cccc(N)c5)cc43)ccc2C1=O [Compound I-473] | ≥ 95%
23 | CN1CCc2cc(N3CCn4nc(NC(=O)c5cccc(OC(C)(C)C(=O)O)c5)cc43)ccc2C1=O [Compound I-474] | ≥ 95%
24 | CCCOc1ccc(C(=O)Nc2cc3n(n2)CCN3c2ccc3c(c2)CCN(C)C3=O)cc1 [Compound I-476] | 94%

Row | Compound | inhibition at 10 µM
25 | CCCCOc1ccc(C(=O)Nc2cc3n(n2)CCN3c2ccc3c(c2)CCN(C)C3=O)cc1 [Compound I-477] | 82%
26 | CN1CCc2cc(N3CCn4nc(NC(=O)c5ccc(NC(=O)OC(C)(C)C)cc5)cc43)ccc2C1=O [Compound I-480] | 86%
27 | CN1CCc2cc(N3CCn4nc(NC(=O)c5ccc(S(C)(=O)=O)cc5)cc43)ccc2C1=O [Compound I-481] | 92%
28 | COC(=O)Nc1ccccc1C(=O)Nc1cc2n(n1)CCN2c1ccc2c(c1)CCN(C)C2=O [Compound I-482] | ≥ 95%
29 | COc1ccc(C(=O)N2CCc3nc(NC(=O)Nc4ccccc4C(=O)NC(C)C)sc3C2)cc1 [Compound I-483] | ≥ 95%
30 | COc1cccc(C(=O)N2CCc3nc(NC(=O)Nc4ccccc4C(=O)NC(C)C)sc3C2)c1 [Compound I-484] | ≥ 95%
31 | COc1ccccc1C(=O)N1CCc2nc(NC(=O)Nc3ccccc3C(=O)NC(C)C)sc2C1 [Compound I-485] | 79%
32 | CC(C)NC(=O)c1ccccc1NC(=O)Nc1nc2c(s1)CN(C(=O)c1ccccc1)CC2 [Compound I-488] | 88%
33 | CN1CCc2cc(N3CCn4nc(NC(=O)c5ccc(N)cc5)cc43)ccc2C1=O [Compound I-489] | ≥ 95%
34 | CN1CCc2cc(N3CCn4nc(NC(=O)c5ccccc5NC(=O)OC(C)(C)C)cc43)ccc2C1=O [Compound I-493] | 91%
35 | CNc1ccccc1C(=O)Nc1cc2n(n1)CCN2c1ccc2c(c1)CCN(C)C2=O [Compound I-494] | 78%
36 | CC(C)NC(=O)Cc1cc(C(=O)Nc2cc3n(n2)CCN3c2ccc3c(c2)CCN(C)C3=O)cs1 [Compound I-495] | ≥ 95%
37 | CCCNC(=O)Cc1cc(C(=O)Nc2cc3n(n2)CCN3c2ccc3c(c2)CCN(C)C3=O)cs1 [Compound I-496] | ≥ 95%
38 | CN1CCc2cc(N3CCn4nc(NC(=O)c5ccccc5N)cc43)ccc2C1=O [Compound I-500] | 81%
39 | CCOC(=O)CNC(=O)Nc1cc2n(n1)CCN2c1ccc2c(c1)CCN(C)C2=O [Compound I-501] | 81%
40 | CN1CCc2cc(N3CCn4nc(NC(=O)[C@@H]5CCC(=O)N5)cc43)ccc2C1=O [Compound I-506] | 84%
41 | CC(C)NC(=O)c1ccccc1NC(=O)Nc1nc2c(s1)CN(C(=O)c1cccc(Cl)c1)CC2 [Compound I-511] | 75%
42 | Cc1cccc(C(=O)N2CCc3nc(NC(=O)Nc4ccccc4C(=O)NC(C)C)sc3C2)c1 [Compound I-514] | 76%
43 | Cc1ccc(C(=O)N2CCc3nc(NC(=O)Nc4ccccc4C(=O)NC(C)C)sc3C2)cc1 [Compound I-515] | 85%
44 | CN1CCc2cc(N3CCn4nc(NC(=O)NCC(=O)O)cc43)ccc2C1=O [Compound I-522] | 94%
45 | CN1CCc2cc(N3CCn4nc(NC(=O)c5ccc(C(=O)O)cc5)cc43)ccc2C1=O [Compound I-524] | 92%

Row | Compound | inhibition at 10 µM
46 | CN1CCc2cc(N3CCn4nc(NC(=O)c5cnc(N6CCC[C@H]6C(=O)OC(C)(C)C)s5)cc43)ccc2C1=O [Compound I-525] | 94%
47 | CCCNS(=O)(=O)c1ccc(C(=O)Nc2cc3n(n2)CCN3c2ccc3c(c2)CCN(C)C3=O)cc1 [Compound I-526] | 90%
48 | CC(C)NS(=O)(=O)c1ccc(C(=O)Nc2cc3n(n2)CCN3c2ccc3c(c2)CCN(C)C3=O)cc1 [Compound I-527] | 79%
49 | COc1cc(N2CCc3nc(NC(=O)N4CC(C(=O)NC(C)C)C4)sc3C2)nc(OC)n1 [Compound I-528] | 76%
50 | COc1cc(N2CCc3nc(NC(=O)C4CN(C(=O)OC(C)(C)C)C4)sc3C2)nc(OC)n1 [Compound I-529] | 82%
51 | CN1CCc2cc(N3CCn4nc(NC(=O)NCCC(=O)OC(C)(C)C)cc43)ccc2C1=O [Compound I-530] | 92%
52 | CC(=O)Nc1ncc(C(=O)Nc2cc3n(n2)CCN3c2ccc3c(c2)CCN(C)C3=O)s1 [Compound I-531] | 75%
53 | CC(C)CC(=O)Nc1ncc(C(=O)Nc2cc3n(n2)CCN3c2ccc3c(c2)CCN(C)C3=O)s1 [Compound I-533] | 95%
54 | CC(C)CNC(=O)c1ccc(C(=O)Nc2cc3n(n2)CCN3c2ccc3c(c2)CCN(C)C3=O)cc1 [Compound I-534] | 91%
55 | CN1CCc2cc(N3CCn4nc(NC(=O)c5cnc(N6CCC[C@H]6C(=O)O)s5)cc43)ccc2C1=O [Compound I-536] | ≥ 95%
56 | CN1CCc2cc(N3CCn4nc(NC(=O)NCCC(=O)O)cc43)ccc2C1=O [Compound I-537] | 87%
57 | CC(C)CCNC(=O)CCNC(=O)Nc1cc2n(n1)CCN2c1ccc2c(c1)CCN(C)C2=O [Compound I-538] | 94%
58 | CN(C)C(=O)Nc1cc2n(n1)CCN2c1ccc2c(c1)CCN(C)C2=O [Compound I-539] | ≥ 95%
59 | COc1cc(N2CCc3nc(NC(=O)NCC4(C(=O)NC(C)C)CC4)sc3C2)nc(OC)n1 [Compound I-546] | 86%
60 | COc1cc(N2CCc3nc(NC(=O)NCC(C)C(=O)NC(C)C)sc3C2)nc(OC)n1 (centres unmarked) [Compound I-547] | ≥ 95%
61 | COCCOc1ccc(C(=O)Nc2cc3n(n2)CCN3c2ccc3c(c2)CCN(C)C3=O)cc1 [Compound I-549] | ≥ 95%
62 | CC(C)NC(=O)c1ccccc1NC(=O)Nc1nc2c(s1)CN(C(=O)c1ccc(O)cc1)CC2 [Compound I-550] | 81%
63 | CC(C)CCOc1ccc(C(=O)Nc2cc3n(n2)CCN3c2ccc3c(c2)CCN(C)C3=O)cc1 [Compound I-551] | 84%
64 | COc1cc(N2CCc3nc(NC(=O)C4CCCCC4)sc3C2)nc(OC)n1 [Compound I-552] | 88%
65 | COc1nc(Cl)cc(N2CCc3nc(NC(=O)NCCC(=O)NC(C)C)sc3C2)n1 [Compound I-554] | 88%

From US20110230472A1, “RING-FUSED AZOLE DERIVATIVE HAVING PI3K-INHIBITING ACTIVITY” (Shionogi & Co., Ltd., priority 2008, published 2011)
